Data published in BindingDB's records for patent US20240254114 (Merck Sharp & Dohme, 2024).

Molecular target: T1, Diacylglycerol O-acyltransferase 2 (Homo sapiens, UniProt Q96PD7)
T1 sequence (Q96PD7 whole entry): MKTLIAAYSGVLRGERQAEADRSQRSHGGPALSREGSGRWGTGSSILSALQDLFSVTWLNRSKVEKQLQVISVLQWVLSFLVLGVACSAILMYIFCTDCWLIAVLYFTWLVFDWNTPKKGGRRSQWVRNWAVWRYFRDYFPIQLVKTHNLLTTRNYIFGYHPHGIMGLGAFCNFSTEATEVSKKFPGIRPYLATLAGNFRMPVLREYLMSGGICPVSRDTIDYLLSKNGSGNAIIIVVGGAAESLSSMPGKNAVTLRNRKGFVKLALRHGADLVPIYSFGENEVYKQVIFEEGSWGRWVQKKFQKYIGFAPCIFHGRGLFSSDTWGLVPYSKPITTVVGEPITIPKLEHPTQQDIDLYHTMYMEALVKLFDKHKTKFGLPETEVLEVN
Test: DGAT2 Enzymatic Activity Assay
Method: DGAT2 activity was determined by measuring the amount of enzymatic product 13C18-triolein (13C-1,2,3-Tri(cis-9-octadecenoyl)glycerol) using the membrane prep mentioned above. The assay was carried out in ABgene 384-well assay plates in a final volume of 25 uL at rt.

- IC50: 1010 nM
Compound: O=C(NC1CN(C(=O)C(F)(F)F)C1)c1nc2ccc(Oc3ncc(Cl)cc3OCC(F)(F)F)cc2o1 [US20240254114, Example 8]
